Experimental data: patent US4551460A, “Pyrido[2,1-b]quinazoline derivatives useful as agents for treatment of allergic conditions and vascular disorders involving thrombosis” (priority 1983, dated 1985)

Columns and labels:
[1] = tested on: histamine-induced constriction in guinea pig ilea; assay: Antagonism of histamine-induced constriction in guinea pig ilea; settings: 1×10^-7 M histamine
Procedure: (f) Antagonism of Histamine-induced Constriction in Guinea Pig Ilea
Antihistaminic activity was determined on a segment of guinea pig ileum that was suspended in a 37° C. bath of oxygenated Tyrodes solution. At 4 minute intervals, the ileum was challenged with 1×10^-7 M histamine for sufficient time to produce a peak contraction and then washed with fresh Tyrodes solution. After the tissue response to histamine had stabilized, the ileum was pretreated with the standard antihistaminic compound, pyrilamine maleate, for 1 minute prior to rechallenge with histamine, the contraction recorded, and the tissue washed with Tyrodes solution. […] By the IC50 for pyrilamine maleate in the test system was 1×10^-8 M. IC50 's for test drugs were determined by this same procedure.

[2] = tested on: histamine-induced bronchoconstriction; assay: Antagonism of histamine-induced bronchoconstriction in guinea pigs; assay type: in vivo, guinea pig (Hartley strain); settings: Cavia porcellus, po, 2 hour pretreatment; read-out: ID50 antagonism of histamine-induced bronchoconstriction
Procedure: (g) Antagonism of PAF and Histamine-induced Bronchoconstriction in Guinea Pig
Spontaneously breathing male guinea pigs (Hartley strain) weighing 300-450 grams are dosed orally with test drug or control vehicle two hours prior to challenge with agonist. The animals are anesthetized with urethane (2 gm/kg) intraperitoneally and the jugular vein and trachea are cannulated. Two hours after dosing, the animal is paralyzed with succinylcholine (1.2 mg/kg, i.v.) and ventilated (Harvard rodent respirator) at 40 breaths/minutes and 2.5 cc tidal volume. Propranolol (0.1 mg/kg, i.v.) is administered and five minutes thereafter the animal is challenged with a constrictory dose of platelet activating factor (10 μg/kg, i.v.) or histamine dihydrochloride (20 μg/kg, i.v.). The change (cm H2 O) between pre and peak ventilatory pressure readings is averaged for three control animals and five drug treated animals. The percent inhibition is calculated from the following formula: (Control-Drug Treated/Control)×100.

[3] = tested on: PAF induced mortality; assay: Prevention of mortality induced by platelet aggregating factor (PAF); assay type: in vivo, mice (CF1); settings: PAF 0.10 mg/kg i.v.
Procedure: (k) Prevention of Mortality Induced by Platelet Aggregating Factor (PAF)
Male CF1 mice weighing 20-30 gms (Carworth Farms Co.) are fed ad libitum.
Racemic 2-[[[2-(acetyloxy)-3-(octadecyloxy)propoxy]hydroxyphosphinyl]oxy]-N,N,N-trimethylethanaminium hydroxide inner salt hemihydrate (PAF) is concentrated in ethanol at a concentration of 1 mg/ml.At the time of experimentation, PAF is diluted in 0.1% BSA (bovine serum albumin) and administered intravenously at a dose of 0.10 mg/kg one hour after 10 mice are dosed with either vehicle (BSA) or drug. Mortality in mice treated with PAF occurs within 30 minutes after i.v. administration.

Structure (SMILES)	IC50 [1] [µM]	ED50 [2] [mg/kg]	ED50 ([3]; Mus musculus, Platelet, oral, read-out: oral ID50 (Inhibiting Dose), PAF induced mortality) [mg/kg]	prevention of PAF induced mortality [3]
CC(C)c1ccc2nc3ccc(C(=O)NCCCCn4ccnc4)cn3c(=O)c2c1 [Compound A, N-[4-(1H-imidazol-1-yl)butyl]-2-(1-methylethyl)-11-oxo-11H-pyrido[2,1-b]quinazoline-8-carboxamide]	1	39	–	–
CC(C)c1ccc2nc3ccc(C(=O)NCCCCc4cccnc4)cn3c(=O)c2c1 [Compound B, 2-(1-methylethyl)-N-[4-(3-pyridyl)butyl]-11-oxo-11H-pyrido[2,1-b]quinazoline-8-carboxamide]	2	–	–	–
CC(C)c1ccc2nc3ccc(C(=O)NCCCCCCc4cccnc4)cn3c(=O)c2c1 [Compound C, 2-(1-Methylethyl)-N-[6-(3-pyridyl)hexyl]-11-oxo-11H-pyrido[2,1-b]quinazoline-8-carboxamide]	–	–	13	prevented PAF induced mortality
